Assay results: US20250339401A1, “METHODS AND MATERIALS FOR TREATMENT OF NEISSERIA GONORRHOEAE INFECTION” (Purdue Research Foundation, priority 2021, published 2025)
Converted amounts (≈) assume the structure as drawn.

Key:
Type in all cases: cell-based
[1] = system: Neisseria gonorrhoeae 214; assay: MIC broth microdilution, N. gonorrhoeae 214
Description: (§1) The minimum inhibitory concentrations (MICs) of the tested compounds and control drugs; Azithromycin, Cefixime and Tetracycline (antibiotics) were determined using the broth microdilution method as described in previous reports with minor modifications against clinically-relevant Neisseria gonorrhea strains. Strains were grown on Brucella broth supplemented with yeast extract, neopeptone, hematin, pyridoxal and NAD at 37° C. for 24 hours in presence of 5% CO2. […] Compounds and control drugs were added in the first row of the 96-well plates and serially diluted with media containing bacteria. Plates were then, incubated aerobically at 37° C. in the presence of 5% CO2 for 24 hours.

[2] = system: Neisseria gonorrhoeae 170; assay: MIC broth microdilution, N. gonorrhoeae 170
Description: as §1

[3] = system: Neisseria gonorrhoeae 169; assay: MIC broth microdilution, N. gonorrhoeae 169
Description: as §1

[4] = system: Neisseria gonorrhoeae 178; assay: MIC broth microdilution, N. gonorrhoeae 178
Description: as §1

[5] = system: Neisseria gonorrhoeae 166; assay: MIC broth microdilution, N. gonorrhoeae 166
Description: as §1

[6] = system: Neisseria gonorrhoeae 194; assay: MIC broth microdilution, N. gonorrhoeae 194
Description: as §1

[7] = system: Neisseria gonorrhoeae 167; assay: MIC broth microdilution, N. gonorrhoeae 167
Description: as §1

[8] = system: Neisseria gonorrhoeae isolate 191; assay: MIC broth microdilution, initial screening against N. gonorrhoeae isolate 191; settings: 24 hours, 37° C., 5% CO2
Description: as §1

[9] = system: Neisseria gonorrhoeae 175; assay: MIC broth microdilution, N. gonorrhoeae 175
Description: as §1

[10] = system: Neisseria gonorrhoeae 172; assay: MIC broth microdilution, N. gonorrhoeae 172
Description: as §1

[11] = system: Neisseria gonorrhoeae 188; assay: MIC broth microdilution, N. gonorrhoeae 188
Description: as §1

[12] = system: Neisseria gonorrhoeae 202; assay: MIC broth microdilution, N. gonorrhoeae 202
Description: as §1

[13] = system: Neisseria gonorrhoeae 171; assay: MIC broth microdilution, N. gonorrhoeae 171
Description: as §1

[14] = system: Neisseria gonorrhoeae 165; assay: MIC broth microdilution, N. gonorrhoeae 165
Description: as §1

Question: What does the source list for CC[C@H]1OC(=O)[C@H](C)[C@@H](O[C@H]2C[C@@](C)(OC)[C@@H](O)[C@H](C)O2)[C@H](C)[C@@H](O[C@@H]2O[C@H](C)C[C@H](N(C)C)[C@H]2O)[C@](C)(O)C[C@@H](C)CN(C)[C@H](C)[C@@H](O)[C@]1(C)O [Azithromycin]?
Answer: MIC [1]: 0.5 mg/L (≈ 0.668 µM); MIC [2]: 1 mg/L (≈ 1.34 µM); MIC [3]: 1 mg/L (≈ 1.34 µM); MIC [4]: 1 mg/L (≈ 1.34 µM); MIC [5]: 2 mg/L (≈ 2.67 µM); MIC [6]: 1 mg/L (≈ 1.34 µM); MIC [7]: 16 mg/L (≈ 21.4 µM); MIC (Minimum inhibitory concentration) [8]: >128; MIC [9]: 16 mg/L (≈ 21.4 µM); MIC [10]: > 128 mg/L; MIC [11]: 2 mg/L (≈ 2.67 µM); MIC [12]: 32 mg/L (≈ 42.7 µM); MIC [13]: 0.25 mg/L (≈ 0.334 µM); MIC [14]: 1 mg/L (≈ 1.34 µM)

Question: How did the MIC [1] turn out when C=CC1=C(C(=O)O)N2C(=O)[C@@H](NC(=O)/C(=N\OCC(=O)O)c3csc(N)n3)[C@H]2SC1 [Cefixime] was run?
Answer: 0.25 mg/L (≈ 0.551 µM)

Question: What about the MIC [2] of the same compound?
Answer: 0.25 mg/L (≈ 0.551 µM)

Question: What about the MIC [3] of the same compound?
Answer: 0.25 mg/L (≈ 0.551 µM)

Question: What about the MIC [4] of the same compound?
Answer: 0.25 mg/L (≈ 0.551 µM)

Question: And the MIC [5]?
Answer: 0.5 mg/L (≈ 1.1 µM)

Question: And the MIC [6]?
Answer: 1 mg/L (≈ 2.21 µM)

Question: What about the MIC [7] of the same compound?
Answer: 0.06 mg/L (≈ 0.132 µM)

Question: And the “MIC (Minimum inhibitory concentration)” value [8]?
Answer: 0.06

Question: And the MIC [9]?
Answer: 0.03 mg/L (≈ 0.0662 µM)

Question: And the MIC [10]?
Answer: 0.06 mg/L (≈ 0.132 µM)

Question: What about the MIC [11] of the same compound?
Answer: 0.25 mg/L (≈ 0.551 µM)

Question: What about the MIC [12] of the same compound?
Answer: 0.03 mg/L (≈ 0.0662 µM)

Question: What about the MIC [13] of the same compound?
Answer: 0.25 mg/L (≈ 0.551 µM)

Question: And the MIC [14]?
Answer: 0.25 mg/L (≈ 0.551 µM)

Question: With CN(C)[C@@H]1C(O)=C(C(N)=O)C(=O)[C@@]2(O)C(O)=C3C(=O)c4c(O)cccc4[C@@](C)(O)[C@H]3C[C@@H]12 [Tetracycline] as the compound, how does the MIC [1] read?
Answer: 4 mg/L (≈ 9 µM)

Question: What about the MIC [2] of the same compound?
Answer: 4 mg/L (≈ 9 µM)

Question: And the MIC [3]?
Answer: 4 mg/L (≈ 9 µM)

Question: What about the MIC [4] of the same compound?
Answer: 16 mg/L (≈ 36 µM)

Question: What about the MIC [5] of the same compound?
Answer: 2 mg/L (≈ 4.5 µM)

Question: And the MIC [6]?
Answer: 1 mg/L (≈ 2.25 µM)

Question: What about the MIC [7] of the same compound?
Answer: 1 mg/L (≈ 2.25 µM)

Question: What about the “MIC (Minimum inhibitory concentration)” value [8] of the same compound?
Answer: 1

Question: What about the MIC [9] of the same compound?
Answer: 1 mg/L (≈ 2.25 µM)

Question: What about the MIC [10] of the same compound?
Answer: 1 mg/L (≈ 2.25 µM)

Question: What about the MIC [11] of the same compound?
Answer: 2 mg/L (≈ 4.5 µM)

Question: What about the MIC [12] of the same compound?
Answer: 1 mg/L (≈ 2.25 µM)

Question: What about the MIC [13] of the same compound?
Answer: 2 mg/L (≈ 4.5 µM)

Question: What about the MIC [14] of the same compound?
Answer: 8 mg/L (≈ 18 µM)
